According to patent publication US20200399222A1, “PICOLINAMIDES AS FUNGICIDES” (Dow AgroSciences LLC, priority 2018, published 2020):
Where two headings read alike, the source gives them in different places.

Legend:
Assay type in all cases: in vivo
[1] = system: Phakopsora pachyrhizi; test: Asian soybean rust (PHAKPA) disease control on soybean seedlings; details: High volume application at 25 ppm; for pest or weed control at 25 ppm: Phakopsora pachyrhizi
Experimental: Example C: Evaluation of Fungicidal Activity: Asian Soybean Rust (Phakopsora pachyrhizi; Bayer Code […]) Technical grades of materials were dissolved in acetone, which were then mixed with nine volumes of water containing 0.011% Tween 20. The fungicide solutions were applied onto soybean seedlings using an automated booth sprayer to run-off. All sprayed plants were allowed to air dry prior to further handling. Soybean plants (variety Williams 82) were grown in soil-less Metro mix, with one plant per pot. Two week old seedlings were used for testing. Plants were inoculated either 3 days prior to or 1 day after fungicide treatments. Plants were incubated for 24 h in a dark dew room at 22° C. and 100% relative humidity then transferred to a growth room at 23° C. for disease to develop. Disease severity was assessed on the sprayed leaves.

[2] = system: Zymoseptoria tritici; test: Leaf blotch of wheat (SEPTTR) disease control on wheat seedlings; details: for pest or weed control at 121.5 g/ha: Low volume application; for pest or weed control at 100 ppm: High volume application
Experimental: Example A: Evaluation of Fungicidal Activity: Leaf Blotch of Wheat (Zymoseptoria tritici; Bayer Code […]) Technical grades of materials were dissolved in acetone, which were then mixed with nine volumes of water containing 110 ppm Triton X-100. The fungicide solutions were applied onto wheat seedlings using an automated booth sprayer to run-off. All sprayed plants were allowed to air dry prior to further handling. All fungicides were evaluated using the aforementioned method for their activity vs. all target diseases, unless stated otherwise. Wheat leaf blotch and brown rust activity were also evaluated using track spray applications, in which case the fungicides were formulated as EC formulations, containing 0.1% Trycol 5941 in the spray solutions. Wheat plants (variety Yuma) were grown from seed in a greenhouse in 50% mineral soil/50% soil-less Metro mix until the first leaf was fully emerged, with 7-10 seedlings per pot. These plants were inoculated with an aqueous spore suspension of Zymoseptoria tritici either prior to or after fungicide treatments. After inoculation the plants were kept in 100% relative humidity (one day in a dark dew chamber followed by two to three days in a lighted dew chamber at 20° C.) to permit spores to germinate and infect the leaf. The plants were then transferred to a greenhouse set at 20° C. for disease to develop. When disease symptoms were fully expressed on the 1st leaves of untreated plants, infection levels were assessed on a scale of 0 to 100 percent disease severity. Percent disease control was calculated using the ratio of disease severity on treated plants relative to untreated plants.

[3] = system: Puccinia triticina; test: Wheat brown rust (PUCCRT) disease control on wheat seedlings; details: for pest or weed control at 121.5 g/ha: Low volume application; for pest or weed control at 100 ppm: High volume application
Experimental: Technical grades of materials were dissolved in acetone, which were then mixed with nine volumes of water containing 110 ppm Triton X-100. The fungicide solutions were applied onto wheat seedlings using an automated booth sprayer to run-off. All sprayed plants were allowed to air dry prior to further handling. All fungicides were evaluated using the aforementioned method for their activity vs. all target diseases, unless stated otherwise. Wheat leaf blotch and brown rust activity were also evaluated using track spray applications, in which case the fungicides were formulated as EC formulations, containing 0.1% Trycol 5941 in the spray solutions. Example B: Evaluation of Fungicidal Activity: Wheat Brown Rust (Puccinia triticina; Synonym: Puccinia recondita f. sp. tritici; Bayer Code PUCCRT) Wheat plants (variety Yuma) were grown from seed in a greenhouse in 50% mineral soil/50% soil-less Metro mix until the first leaf was fully emerged, with 7-10 seedlings per pot. These plants were inoculated with an aqueous spore suspension of Puccinia triticina either prior to or after fungicide treatments. After inoculation the plants were kept in a dark dew room at 22° C. with 100% relative humidity overnight to permit spores to germinate and infect the leaf. The plants were then transferred to a greenhouse set at 24° C. for disease to develop. Fungicide formulation, application and disease assessment followed the procedures as described in the Example A.

[4] = 24 h, 1 day protectant, read-out: PHAKPA 1DP (1 Day Protectant) disease control
[5] = 72 h, 3 day curative, read-out: PHAKPA 3DC (3 Day Curative) disease control
[6] = 24 h, 1 Day Protectant, read-out: SEPTTR disease control rating, 1DP
[7] = 72 h, 3 Day Curative, read-out: SEPTTR disease control rating, 3DC
[8] = 24 h, 1 Day Protectant, read-out: PUCCRT disease control rating, 1DP
[9] = 72 h, 3 Day Curative, read-out: PUCCRT disease control rating, 3DC

SMILES | pest or weed control at 25 ppm [1, 4] [%] | pest or weed control at 25 ppm [1, 5] [%] | pest or weed control at 121.5 g/ha [2, 6] [%] | pest or weed control at 121.5 g/ha [2, 7] [%] | pest or weed control at 121.5 g/ha [3, 8] [%] | pest or weed control at 121.5 g/ha [3, 9] [%] | pest or weed control at 100 ppm [2, 6] [%] | pest or weed control at 100 ppm [2, 7] [%] | pest or weed control at 100 ppm [3, 8] [%] | pest or weed control at 100 ppm [3, 9] [%] | PHAKPA 3DC (3 Day Curative) disease control ([1]; 3 day curative)
COc1ccnc(C(=O)N[C@@H](C)C(=O)O[C@H](C)[C@H](C)c2ccc(C)cc2C)c1OC(=O)C(C)C [Example 180] | > 80 | < 80 | < 80 | < 80 | < 80 | < 80 | – | – | – | – | –
COc1ccnc(C(=O)N[C@@H](C)C(=O)O[C@@H](C)[C@@H](C)c2ccc(F)cc2C(F)(F)F)c1O [Example 159] | – | > 80 | – | – | – | – | > 80 | > 80 | > 80 | > 80 | –
COc1ccnc(C(=O)N[C@@H](C)C(=O)OC(C)C(C)c2c(C)cccc2C)c1OC(C)=O (stereo partly drawn) [Example 255] | > 80 | > 80 | < 80 | > 80 | > 80 | < 80 | – | – | – | – | –
COc1ccnc(C(=S)N[C@@H](C)C(=O)O[C@@H](C)[C@@H](C)c2ccc(F)cc2C(F)(F)F)c1OC(C)=O [Example 271] | > 80 | > 80 | < 80 | < 80 | < 80 | < 80 | – | – | – | – | –
COc1ccnc(C(=O)N[C@@H](C)C(=O)O[C@H](C)[C@H](C)c2ccc(F)cc2)c1OCOC(C)=O [Example 232] | < 80 | < 0 | < 0 | < 80 | > 80 | < 80 | – | – | – | – | –
COc1ccnc(C(=O)N[C@@H](C)C(=O)O[C@@H](C)[C@@H](C)c2ccccc2C(F)(F)F)c1O [Example 158] | – | < 80 | – | – | – | – | > 80 | < 80 | > 80 | > 80 | –
COc1ccnc(C(=O)N[C@@H](C)C(=O)O[C@@H](C)[C@@H](C)c2ccc(C)cc2C)c1OC(=O)C(C)C [Example 179] | > 80 | > 80 | < 80 | < 80 | > 80 | > 80 | – | – | – | – | –
COc1ccc([C@@H](C)[C@@H](C)OC(=O)[C@H](C)NC(=O)c2nccc(OC)c2OCOC(C)=O)c(C)c1 [Example 233] | > 80 | < 80 | < 80 | < 80 | > 80 | < 80 | – | – | – | – | –
COc1ccnc(C(=O)N[C@H](C(=O)O[C@@H](C)[C@H](C)c2ccc(F)cc2C)C(C)C)c1OC(=O)C(C)C [Example 210] | < 0 | < 0 | – | – | – | – | – | – | – | – | –
COc1ccnc(C(=O)N[C@H](C(=O)O[C@@H](C)[C@@H](C)c2ccc(F)cc2C)C(C)C)c1OC(=O)C(C)C [Example 205] | > 80 | – | – | – | – | – | – | – | – | – | B (≤80)
COc1ccc([C@H](C)[C@H](C)OC(=O)CNC(=O)c2nccc(OC)c2OC(=O)C(C)C)c(C)c1 [Example 200] | < 80 | – | – | – | – | – | – | – | – | – | B (≤80)
COc1ccnc(C(=O)N[C@H](C(=O)O[C@H](C)[C@@H](C)c2ccccc2C)C(C)C)c1OC(C)=O [Example 191] | < 80 | < 80 | – | – | – | – | – | – | – | – | –
COc1ccnc(C(=O)N[C@H](C(=O)O[C@@H](C)[C@H](C)c2ccccc2C)C(C)C)c1OC(C)=O [Example 186] | < 80 | < 80 | – | – | – | – | – | – | – | – | –
COc1ccnc(C(=O)N[C@H](C)C(=O)O[C@@H](C)[C@H](C)c2ccccc2C)c1OC(C)=O [Example 194] | < 0 | < 0 | – | – | – | – | – | – | – | – | –
COc1ccc([C@@H](C)[C@@H](C)OC(=O)[C@@H](NC(=O)c2nccc(OC)c2OC(C)=O)C(C)C)c(C)c1 [Example 193] | < 80 | < 0 | – | – | – | – | – | – | – | – | –
